The target in series [1] is 11-beta-hydroxysteroid dehydrogenase 1 (Homo sapiens, UniProt P28845). Kind of series: Inhibition of human 11-betaHSD1 by biochemical assay.
The nature of series [2]: Aqueous solubility of the compound. It counts as physicochemical.
The nature of series [3]: Stability in human liver microsomes assessed as compound remaining after 10 mins. It counts as ADME. The following applies: read-out: Stability. On the technique in general: Liver microsomes are a subcellular fraction often used to study metabolism.
Series [4] is described as follows: Stability in rat liver microsomes assessed as compound remaining after 10 mins. Format: ADME. The following applies: read-out: Stability.
The target in series [5] is 11-beta-hydroxysteroid dehydrogenase 1 (Mus musculus, UniProt P50172). Kind of series: Inhibition of mouse 11-betaHSD1 by biochemical assay.
Series [6] is described as follows: Stability in mouse liver microsomes assessed as compound remaining after 10 mins. The following applies: read-out: Stability. Format: ADME.

8 compounds from ChEMBL document CHEMBL3352232, “Discovery of pyridyl sulfonamide 11-beta-hydroxysteroid dehydrogenase type 1 (11β-HSD1) inhibitors for the treatment of metabolic disorders” (Bioorg Med Chem Lett, 2014) can be followed below.

Values after ≈ are worked out from the molar mass of the structure shown.

11-beta-hydroxysteroid dehydrogenase 1 (Homo sapiens, UniProt P28845), sequence (P28845 whole entry): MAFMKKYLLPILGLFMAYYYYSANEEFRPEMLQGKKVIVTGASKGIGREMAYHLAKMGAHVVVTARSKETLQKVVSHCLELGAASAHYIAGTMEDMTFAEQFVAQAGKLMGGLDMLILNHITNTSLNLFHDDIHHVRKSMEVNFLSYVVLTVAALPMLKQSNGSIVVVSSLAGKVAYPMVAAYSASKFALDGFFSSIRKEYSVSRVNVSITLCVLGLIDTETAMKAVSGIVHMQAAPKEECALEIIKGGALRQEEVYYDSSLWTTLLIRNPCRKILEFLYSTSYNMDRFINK
11-beta-hydroxysteroid dehydrogenase 1 (Mus musculus, UniProt P50172), sequence (P50172 whole entry): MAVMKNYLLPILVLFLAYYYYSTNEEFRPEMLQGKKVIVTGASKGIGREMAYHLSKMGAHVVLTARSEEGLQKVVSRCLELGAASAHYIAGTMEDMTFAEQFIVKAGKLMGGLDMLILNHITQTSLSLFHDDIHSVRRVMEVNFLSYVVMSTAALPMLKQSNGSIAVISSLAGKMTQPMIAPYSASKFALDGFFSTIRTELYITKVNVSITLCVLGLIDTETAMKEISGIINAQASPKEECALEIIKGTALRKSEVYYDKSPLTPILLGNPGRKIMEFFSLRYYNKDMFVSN

In series [1], `CC1CCN(C(=O)c2ccc(CSc3ccc(Cl)cc3)cc2)CC1` registered an IC50 of 160 nM. That is a sub-micromolar value.

Compound `N#Cc1ccc(-c2cccc(S(=O)(=O)N3CCC(N4CCOCC4)C3)n2)cc1` (centres undefined) displayed an IC50 in series [1] of 160 nM. Moreover, the concentration in solution in series [2] (solubility) was 14 µg/mL (≈ 35.1 µM).

`CC1CCN(S(=O)(=O)c2cccc(-c3cccc(Cl)c3)n2)CC1` displayed an IC50 in series [1] of 310 nM. This compound also had a solubility in series [2] of 1 µg/mL (≈ 2.85 µM).

Turning to `CC1CCN(S(=O)(=O)c2cccc(-c3ccc(Cl)cc3)n2)CC1`, the IC50 in series [1] worked out at 55 nM. This compound showed a solubility in series [2] of 1 µg/mL (≈ 2.85 µM).

`CC1CCN(S(=O)(=O)c2cccc(-c3ccc(C#N)cc3)n2)CC1`: in series [1], half-maximal inhibition (IC50) was put at 49 nM. This compound also had a solubility in series [2] of 2 µg/mL (≈ 5.86 µM).

In the case of `N#Cc1ccc(-c2cccc(S(=O)(=O)N3CCC(C4CCCCC4)CC3)n2)cc1`, the IC50 in series [1] is 9 nM. The same compound displayed a solubility in series [2] of under 1 µg/mL.

In series [1], `N#Cc1ccc(-c2cccc(S(=O)(=O)N3CCC(N4CCCC4)CC3)n2)cc1` displayed an IC50 of 980 nM. Moreover, in series [2], the concentration in solution (solubility) came to 270 µg/mL (≈ 681 µM).

For the compound `O=S(=O)(c1cccc(-c2ccccc2)n1)N1CCC(N2CCOCC2)CC1`, the IC50 in series [1] is 30 nM; in series [5] it was “Not Active”. For the same compound, the remaining at 10 min was 62% in series [3], 4% in series [4] and 7% in series [6]. For the same compound, in series [2], the solubility amounted to 48 µg/mL (≈ 124 µM).

As a reminder, the IC50 is the midpoint of a concentration-inhibition curve. Lower therefore signals higher potency. As a reminder, the solubility is the concentration that dissolves in the medium under given conditions. Lower therefore signals little dissolved substance.
